According to PMC7558399, “In Vitro Selective Growth-Inhibitory Activities of Phytochemicals, Synthetic Phytochemical Analogs, and Antibiotics against Diarrheagenic/Probiotic Bacteria and Cancer/Normal Intestinal Cells” (Pharmaceuticals, 2020):
Converted amounts (≈) assume the structure as drawn. Where a name gives a salt, the structure may show the parent alone. Read-outs that look alike come from different tables or passages of the source.

Assays:
Format in all cases: cell-based
[1] = test system: Bifidobacterium adolescentis (DSMZ 20087); assay: Broth microdilution MIC, B. adolescentis; conditions: read-out: MIC
[2] = test system: S. enterica ssp. enterica serovar Typhimurium (ATCC 14028); assay: Broth microdilution MIC, Salmonella Typhimurium; conditions: Salmonella Typhimurium, read-out: MIC
[3] = test system: Escherichia coli (ATCC 25922); assay: Broth microdilution MIC, E. coli; conditions: read-out: MIC
[4] = test system: Bifidobacterium breve (ATCC 15700); assay: Broth microdilution MIC, B. breve; conditions: read-out: MIC
[5] = test system: Salmonella enterica ssp. enterica serovar Enteritidis (ATCC 13076); assay: Broth microdilution MIC, Salmonella Enteritidis; conditions: Salmonella Enteritidis, read-out: MIC
[6] = test system: FHs 74 Int (ATCC CCL 241) intestinal normal cells; assay: MTT cytotoxicity assay, FHs 74 Int; conditions: 72 h; for IC50 / IC80: FHs74Int
[7] = test system: Bifidobacterium bifidum (ATCC 29521); assay: Broth microdilution MIC, B. bifidum; conditions: read-out: MIC
[8] = test system: diarrheagenic bacteria (12 strains); assay: microbe, parasite or virus in culture
[9] = test system: Bifidobacterium animalis spp. lactis (DSMZ 10140); assay: Broth microdilution MIC, B. animalis spp. lactis; conditions: DSMZ10140, Bifidobacterium animalis spp. lactis, read-out: MIC
[10] = test system: Caco-2 (ATCC HTB 37) intestinal cancer cells; assay: MTT cytotoxicity assay, Caco-2; conditions: Homo sapiens; for IC50: read-out: IC50 ± SD; for IC80: read-out: IC80 ± SD (80% inhibitory concentration of proliferation)
[11] = test system: Clostridium difficile (DSMZ 12056); assay: microbe, parasite or virus in culture; conditions: Clostridioides difficile, DSMZ12056, Clostridium difficile, read-out: MIC
[12] = test system: Clostridium perfringens (DSMZ 11778); assay: microbe, parasite or virus in culture; conditions: DSMZ11778
[13] = test system: Bacillus cereus (ATCC 14579); assay: Broth microdilution MIC, B. cereus; conditions: median/mode, read-out: MIC
[14] = test system: Enterococcus faecalis (ATCC 29212); assay: Broth microdilution MIC, E. faecalis; conditions: read-out: MIC
[15] = test system: Yersinia enterocolitica (ATCC 9610); assay: Broth microdilution MIC, Y. enterocolitica; conditions: read-out: MIC
[16] = test system: Vibrio parahaemolyticus (ATCC 17802); assay: Broth microdilution MIC, V. parahaemolyticus; conditions: read-out: MIC
[17] = test system: HT29 (ATCC HTB 38) intestinal cancer cells; assay: MTT cytotoxicity assay, HT29; conditions: Homo sapiens; for IC50: read-out: IC50 ± SD; for IC80: read-out: IC80 ± SD (80% inhibitory concentration of proliferation)
[18] = test system: probiotic bacteria (9 strains); assay: Broth microdilution MIC, probiotic bacteria as a group (mean or range over strains)
[19] = test system: Lactobacillus casei (DSMZ 20011); assay: Broth microdilution MIC, L. casei; conditions: Lacticaseibacillus casei, DSMZ20011, Lactobacillus casei, read-out: MIC
[20] = test system: E. coli 0175:H7 (NCTC 12900); assay: microbe, parasite or virus in culture; conditions: Escherichia coli, NCTC12900
[21] = test system: Listeria monocytogenes (ATCC 7644); assay: Broth microdilution MIC, L. monocytogenes; conditions: ATCC7644, growth inhibited by ≥80%, read-out: MIC
[22] = test system: Bacteroides fragilis (ATCC 25285); assay: Broth microdilution MIC, B. fragilis; conditions: read-out: MIC
[23] = test system: Lactobacillus reuteri (CCM 3625); assay: Broth microdilution MIC, L. reuteri; conditions: Limosilactobacillus reuteri, CCM3625, Lactobacillus reuteri, read-out: MIC
[24] = test system: intestinal cancer cells (HT29 and Caco-2); assay: MTT cytotoxicity assay, mean for intestinal cancer cells; conditions: for IC50: read-out: x¯ -CC ± SD: mean IC50 for intestinal cancer cells; for IC80: read-out: x¯ -CC ± SD: mean IC80 for intestinal cancer cells
[25] = test system: Shigella flexneri (ATCC 12022); assay: microbe, parasite or virus in culture
[26] = test system: Bifidobacterium longum ssp. longum (DSMZ 20219); assay: Broth microdilution MIC, B. longum ssp. longum; conditions: DSMZ20219, Bifidobacterium longum ssp. longum, read-out: MIC
[27] = test system: Lactobacillus rhamnosus (CCM 7091); assay: Broth microdilution MIC, L. rhamnosus; conditions: Lacticaseibacillus rhamnosus, CCM7091, Lactobacillus rhamnosus, read-out: MIC
[28] = DSMZ20087, growth inhibited by ≥80%
[29] = ATCC25922, growth inhibited by ≥80%
[30] = ATCC15700, growth inhibited by ≥80%
[31] = FHs 74 Int (intestinal normal cells), MTT, read-out: IC50 ± SD
[32] = FHs 74 Int (intestinal normal cells), MTT, read-out: IC80 ± SD (80% inhibitory concentration of proliferation)
[33] = ATCC29521, growth inhibited by ≥80%
[34] = mean of 12 strains, >512 replaced with 1024, read-out: x¯ -DB ± SD: mean MIC for diarrheagenic bacteria
[35] = ATCC14579, growth inhibited by ≥80%
[36] = ATCC29212, growth inhibited by ≥80%
[37] = ATCC9610, growth inhibited by ≥80%
[38] = ATCC17802, growth inhibited by ≥80%
[39] = mean of 9 strains, >512 replaced with 1024, read-out: x¯ -PB ± SD: mean MIC for probiotic bacteria
[40] = ATCC25285, growth inhibited by ≥80%
[41] = mean of HT29 and Caco-2, >512 replaced with 1024
[42] = FHs 74 Int (intestinal normal cells), MTT

## Oc1c(Cl)cc(Cl)c2cccnc12 [CLX, 5,7-dichloroquinolin-8-ol]
[1]; [28]
  MIC: 128 µg/mL (≈ 598 µM)
[2]; growth inhibited by ≥80%
  MIC: 16 µg/mL (≈ 74.7 µM)
[3]; [29]
  MIC: 16 µg/mL (≈ 74.7 µM)
[4]; [30]
  MIC: 64 µg/mL (≈ 299 µM)
[5]; growth inhibited by ≥80%
  MIC: 64 µg/mL (≈ 299 µM)
[6]; [31]
  IC50: 0.5 ± 0.02 µg/mL (≈ 2.34 µM)
[6]; [32]
  IC80: 2 ± 0.1 µg/mL (≈ 9.34 µM)
[7]; [33]
  MIC: > 512 µg/mL
[8]; [34]
  MIC: 24 ± 19 µg/mL (≈ 112 µM)
[9]; growth inhibited by ≥80%
  MIC: 512 µg/mL (≈ 2390 µM)
[10]; Caco-2, MTT, 72 h
  IC50: 1.3 ± 0.04 µg/mL (≈ 6.07 µM)
  IC80: 5.9 ± 0.7 µg/mL (≈ 27.6 µM)
[11]; growth inhibited by ≥80%
  MIC: 8 µg/mL (≈ 37.4 µM)
[12]
  MIC: 16 µg/mL (≈ 74.7 µM)
[13]; [35]
  MIC: 8 µg/mL (≈ 37.4 µM)
[14]; [36]
  MIC: 16 µg/mL (≈ 74.7 µM)
[15]; [37]
  MIC: 16 µg/mL (≈ 74.7 µM)
[16]; [38]
  MIC: 16 µg/mL (≈ 74.7 µM)
[17]; HT-29, HT29, MTT, 72 h
  IC50: 3.7 ± 0.3 µg/mL (≈ 17.3 µM)
  IC80: 5 ± 0.7 µg/mL (≈ 23.4 µM)
[18]; [39]
  MIC: 245 ± 306 µg/mL (≈ 1150 µM)
[19]; growth inhibited by ≥80%
  MIC: 128 µg/mL (≈ 598 µM)
[20]
  MIC: 64 µg/mL (≈ 299 µM)
[21]
  MIC: 32 µg/mL (≈ 149 µM)
[22]; [40]
  MIC: 32 µg/mL (≈ 149 µM)
[23]; growth inhibited by ≥80%
  MIC: 128 µg/mL (≈ 598 µM)
[24]; [41]
  IC50: 2.5 ± 1.2 µg/mL (≈ 11.7 µM)
[24]
  IC80: 5.4 ± 0.5 µg/mL (≈ 25.2 µM)
[25]; ATCC12022
  MIC: 16 µg/mL (≈ 74.7 µM)
[26]; growth inhibited by ≥80%
  MIC: 64 µg/mL (≈ 299 µM)
[27]; growth inhibited by ≥80%
  MIC: 128 µg/mL (≈ 598 µM)

## CN[C@H](CC(C)C)C(=O)N[C@H]1C(=O)N[C@@H](CC(N)=O)C(=O)N[C@H]2C(=O)N[C@H]3C(=O)N[C@H](C(=O)N[C@H](C(=O)O)c4cc(O)cc(O)c4-c4cc3ccc4O)[C@H](O)c3ccc(c(Cl)c3)Oc3cc2cc(c3O[C@@H]2O[C@H](CO)[C@@H](O)[C@H](O)[C@H]2O[C@H]2C[C@](C)(N)[C@H](O)[C@H](C)O2)Oc2ccc(cc2Cl)[C@H]1O [VM, vancomycin hydrochloride]
[1]; DSMZ20087, […]
  MIC: 2 µg/mL
[2]; […]
  MIC: 512 µg/mL
[3]; ATCC25922, […]
  MIC: > 512 µg/mL
[4]; ATCC15700, […]
  MIC: 4 µg/mL
[5]; […]
  MIC: 512 µg/mL
[6]; [42]
  IC50 ± SD: - (Not active (MIC/IC50/80 > 512 μg/mL, the value 1024 μg/mL was used for average calculation))
  IC80 ± SD (80% inhibitory concentration of proliferation): - (Not active (MIC/IC50/80 > 512 μg/mL, the value 1024 μg/mL was used for average calculation))
[6]; read-out: IC50 ± SD, FHs 74 Int (intestinal normal cells), MTT
  IC50: > 512 µg/mL
[6]; read-out: IC80 ± SD (80% inhibitory concentration of proliferation), FHs 74 Int (intestinal normal cells), MTT
  IC80: > 512 µg/mL
[7]; ATCC29521, […]
  MIC: 4 µg/mL
[8]; both clostridial species tested, read-out: MICs
  MIC: 0.5 to 8 µg/mL
[8]; [34]
  MIC: 513 ± 404 µg/mL
[9]; […]
  MIC: 2 µg/mL
[10]; Caco-2, 72 h
  IC50: > 512 µg/mL
  IC80: > 512 µg/mL
[11]; […]
  MIC: 2 µg/mL
[12]
  MIC: 1 µg/mL
[13]; ATCC14579, […]
  MIC: 256 µg/mL
[14]; ATCC29212, […]
  MIC: > 512 µg/mL
[15]; ATCC9610, […]
  MIC: > 512 µg/mL
[16]; ATCC17802, […]
  MIC: 256 µg/mL
[17]; HT-29, 72 h
  IC50: > 512 µg/mL
  IC80: > 512 µg/mL
[18]; bifidobacteria, range over strains, read-out: MICs
  MIC: 2 to 4 µg/mL
[18]; lactobacilli, range over strains, read-out: MICs
  MIC: 64 to 256 µg/mL
[18]; [39]
  MIC: 47.8 ± 78 µg/mL
[19]; […]
  MIC: 256 µg/mL
[20]
  MIC: 512 µg/mL
[21]
  MIC: 8 µg/mL
[22]; ATCC25285, […]
  MIC: 32 µg/mL
[23]; […]
  MIC: 64 µg/mL
[24]
  IC50: > 512 µg/mL
  IC80: > 512 µg/mL
[25]; ATCC12022, […], read-out: MIC
  MIC: > 512 µg/mL
[26]; […]
  MIC: 2 µg/mL
[27]; […]
  MIC: 64 µg/mL

## O=C(O)c1ccccc1O [SA, salicylic acid]
[1]; [28]
  MIC: > 512 µg/mL
[2]; growth inhibited by ≥80%
  MIC: > 512 µg/mL
[3]; [29]
  MIC: > 512 µg/mL
[4]; [30]
  MIC: > 512 µg/mL
[5]; growth inhibited by ≥80%
  MIC: > 512 µg/mL
[6]; [31]
  IC50: 73.2 ± 4.6 µg/mL (≈ 530 µM)
[6]; [32]
  IC80: 207 ± 69 µg/mL (≈ 1500 µM)
[7]; [33]
  MIC: > 512 µg/mL
[8]; [34]
  MIC: 960 ± 212 µg/mL (≈ 6950 µM)
[9]; growth inhibited by ≥80%
  MIC: 128 µg/mL (≈ 927 µM)
[10]; Caco-2, MTT, 72 h
  IC50: > 512 µg/mL
  IC80: > 512 µg/mL
[11]; […]
  MIC: 256 µg/mL (≈ 1850 µM)
[12]
  MIC: > 512 µg/mL
[13]; [35]
  MIC: > 512 µg/mL
[14]; [36]
  MIC: > 512 µg/mL
[15]; [37]
  MIC: > 512 µg/mL
[16]; [38]
  MIC: > 512 µg/mL
[17]; HT-29, HT29, MTT, 72 h
  IC50: > 512 µg/mL
  IC80: > 512 µg/mL
[18]; [39]
  MIC: 597 ± 336 µg/mL (≈ 4320 µM)
[19]; growth inhibited by ≥80%
  MIC: 512 µg/mL (≈ 3710 µM)
[20]
  MIC: > 512 µg/mL
[21]
  MIC: > 512 µg/mL
[22]; [40]
  MIC: 128 µg/mL (≈ 927 µM)
[23]; growth inhibited by ≥80%
  MIC: 512 µg/mL (≈ 3710 µM)
[24]; [41]
  x¯ -CC ± SD: mean IC50 for intestinal cancer cells: - (Not active (MIC/IC50/80 > 512 μg/mL, the value 1024 μg/mL was used for average calculation))
[24]; mean of HT29 and Caco-2, >512 replaced with 1024, listed as salicylic acid
  x¯ -CC ± SD: mean IC50 for intestinal cancer cells: ≥ 253.6 ± 208 µg/mL
[24]
  IC80: > 512 µg/mL
[25]; ATCC12022
  MIC: > 512 µg/mL
[26]; growth inhibited by ≥80%
  MIC: 512 µg/mL (≈ 3710 µM)
[27]; growth inhibited by ≥80%
  MIC: 512 µg/mL (≈ 3710 µM)
